Experimental data from patent US20190269666A1, “COMBINATION THERAPY WITH MERESTINIB AND ANTI-PD-L1 OR ANTI-PD-1 INHIBITORS FOR USE IN THE TREATMENT OF CANCER” (Eli Lilly and Company, priority 2016, published 2019).

System: EMT6 syngeneic mouse mammary carcinoma tumor model
Assay: EMT6 syngeneic mouse mammary carcinoma tumor model
Assay type: in vivo
Excerpt: A syngeneic mouse tumor model is used to evaluate potential combination effect of merestinib and anti-PD-L1 antibody in the EMT6 model (Rockwell, S C, Kallman, R F, Fajardo, L F. Characteristics of a serially transplanted mouse mammary tumor and its tissue-culture-adpated derivative. J Nat Cancer Institute. 1972, 49:735-749). Anti-PD-L1 antibody surrogate (178G7, LSN3370181) (Eppihimer et al. Microcirculation 2002:9(2):133) is used in the mouse study.
Female BALB/c mice (18-20 gm) from Envigo (Harlan Laboratories) are used for this study. Food and water are available ad libitum. Animals are acclimated for at least one week prior to any experimental manipulation. The study is performed in accordance with AALAC accredited institutional guidelines.
Merestinib is formulated as a solution in 10% PEG 400 in 90% (20% Captisol in H2O) once weekly. Anti-PD-L1 antibody (LSN3370181) is formulated in PBS (phosphate buffered saline).
EMT6 cells (from internal in vivo pharmacology cell culture group lot EMT6-3184882) are used for implantation. Approximately 5×10^5 cells in HBSS are implanted subcutaneously into the right hind flank of the animal under anesthesia. Prior to commencing drug administration, animals are randomized to treatment groups based on body weight.
There are 4 arms in this study with 15 animals per group: 1) vehicle control; 2) merestinib 12 mg/kg QD×21, PO; 3) LSN3370181 (anti-PD-L1) 0.5 mg/mouse once weekly for 3 weeks via IP; 4) combination merestinib+anti-PD-L1 antibody; combination therapies follow the same dosing schedule as the monotherapies. Treatment is initiated on Day 6 post tumor cell implantation and continued for 21 days (final dose administered on Day 26). Tumor volumes and body weight are measured bi-weekly. Tumor volume is estimated by using the formula: v=l×w^2×0.536 where l=larger of measured diameter and w=smaller of perpendicular diameter. Animals are sacrificed using CO2 and cervical dislocation.
On Day 20 post tumor cell implant, 5 animals from each group are taken down for harvesting of spleens and tumors for mechanism of action (MOA) studies (FACs analysis, gene expression). The remaining animals continue with treatment as described above. At the end of the dosing period (Day 27 post tumor cell implant), animals are observed for tumor growth for 43 days. Animals are removed from study when tumor burden reached or exceeded 2500 mm^3. To assess immune memory, on Day 70 post tumor cell implant, animals that remained on study (complete responders and partial responders) are rechallenged with new implant of EMT6 cells on the contralateral side and observed for tumor growth for 15 days.
Tumor volume is transformed to the log scale to equalize variance across time and treatment groups. The log volume data are analyzed with a two-way repeated measures analysis of variance by time and treatment using the MIXED procedures in SAS software (Version 9.3). The correlation model for the repeated measures is spatial power. Treated groups are compared to the control group at each time point. The MIXED procedure is also used separately for each treatment group to calculate least squares means and standard errors at each time point. Both analyses account for the autocorrelation within each animal and the loss of data that occurs when animals are removed or lost before end of study.
Bayesian ordinal logistic regression analysis is used to obtain the posterior probability of the combination treatment effect for synergy, additivity or antagonism was conducted on Day 69 for this study. Each animal was classified into one of 3 response categories, based on its Day 69 tumor volume and by comparison to the vehicle data: I) Non-responder (NR), II) Partial Responder (PR), III) Complete Responder (CR). CR is defined by tumor volume […] at Day 69. NR is defined as unperturbed exponential growth, similar to vehicle animals. […]

In the case of `Cc1ccc(C(=O)Nc2ccc(Oc3cc4cnn(C)c4cc3-c3cn[nH]c3)c(F)c2)c(=O)n1-c1ccc(F)cc1` [merestinib, N-(3-fluoro-4-(1-methyl-6-(1H-pyrazol-4-yl)-1H-indazol-5-yloxy)phenyl)-1-(4-fluorophenyl)-6-methyl-2-oxo-1,2-dihydropyridine-3-carboxamide], the “Regression (%)” value (Day 31) is reported as “No tumor regression”, the “T/C %” value (Day 31) is reported as 35.2% and the “Day 69 Treatment Responders NR (Non-responder)” value (animals of 10/group) is reported as 10. The “Day 69 Treatment Responders PR (Partial Responder)” value (animals of 10/group) was 0, the “Day 69 Treatment Responders CR (Complete Responder)” value (animals of 10/group, tumor volume ≤25 mm^3) was 0 and the “single agent anti-tumor activity” value (mouse, in vivo) was “weak single agent anti-tumor activity”.
